Calls of active or inactive are those of the source.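 How the source made its calls: active means IC50 at or below 10 µM; inactive means IC50 above 10 µM.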
What follows are molecules tested against Rho-associated protein kinase 2 (Homo sapiens) (UniProt O75116) (assay: ROCK2 inhibitor IC50 determination, dose response, biochemical, Kinase-Glo luminescence, S6 peptide, 384-well (AID 791)). Settings: recombinant ROCK2, S6 peptide.
Sequence of Rho-associated protein kinase 2 (Homo sapiens) (O75116 whole entry, looked up): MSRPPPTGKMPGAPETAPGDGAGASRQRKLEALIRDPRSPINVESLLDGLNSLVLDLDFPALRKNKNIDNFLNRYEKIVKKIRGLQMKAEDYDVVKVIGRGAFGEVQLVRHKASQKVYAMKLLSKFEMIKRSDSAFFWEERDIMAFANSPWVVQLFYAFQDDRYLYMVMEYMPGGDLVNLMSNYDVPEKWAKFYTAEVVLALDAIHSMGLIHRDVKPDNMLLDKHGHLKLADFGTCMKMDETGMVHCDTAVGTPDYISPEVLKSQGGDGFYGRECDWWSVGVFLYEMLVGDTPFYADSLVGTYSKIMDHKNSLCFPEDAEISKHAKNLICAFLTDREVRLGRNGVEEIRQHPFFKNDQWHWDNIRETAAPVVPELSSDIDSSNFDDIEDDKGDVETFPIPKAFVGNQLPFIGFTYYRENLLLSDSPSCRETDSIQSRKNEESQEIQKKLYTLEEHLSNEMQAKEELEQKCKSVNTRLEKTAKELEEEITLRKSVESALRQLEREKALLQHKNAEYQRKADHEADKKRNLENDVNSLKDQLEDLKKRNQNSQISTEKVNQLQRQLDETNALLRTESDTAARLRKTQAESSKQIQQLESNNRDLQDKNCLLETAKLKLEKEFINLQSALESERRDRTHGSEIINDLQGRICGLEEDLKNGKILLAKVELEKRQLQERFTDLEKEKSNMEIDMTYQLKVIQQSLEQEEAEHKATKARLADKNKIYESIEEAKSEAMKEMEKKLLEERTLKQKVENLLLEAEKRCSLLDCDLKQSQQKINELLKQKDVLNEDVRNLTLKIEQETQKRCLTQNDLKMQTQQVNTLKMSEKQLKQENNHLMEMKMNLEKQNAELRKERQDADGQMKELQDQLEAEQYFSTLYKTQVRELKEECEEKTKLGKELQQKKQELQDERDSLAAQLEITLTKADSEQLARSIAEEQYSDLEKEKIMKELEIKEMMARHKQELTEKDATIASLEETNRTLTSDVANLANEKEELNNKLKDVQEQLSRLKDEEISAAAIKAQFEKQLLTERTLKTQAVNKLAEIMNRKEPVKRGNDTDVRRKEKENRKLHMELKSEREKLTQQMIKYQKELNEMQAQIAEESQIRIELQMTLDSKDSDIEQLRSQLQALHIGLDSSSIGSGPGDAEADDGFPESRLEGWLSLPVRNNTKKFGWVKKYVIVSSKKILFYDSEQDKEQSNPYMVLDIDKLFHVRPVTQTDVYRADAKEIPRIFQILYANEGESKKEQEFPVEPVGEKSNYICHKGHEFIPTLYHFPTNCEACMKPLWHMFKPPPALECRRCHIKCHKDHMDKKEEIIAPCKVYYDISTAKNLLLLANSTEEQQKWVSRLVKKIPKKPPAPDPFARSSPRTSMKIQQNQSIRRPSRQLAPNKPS

**Q.** For `N[C@H](Cc1ccccc1)C(=O)N1CCN(c2ccc3[nH]ncc3c2)CC1`, which IC50 is on record?
**A.** 0.379 µM

**Q.** With `O=C(C(O)c1ccc(Br)cc1)N1CCC(Nc2ccc3[nH]ncc3c2)CC1` (stereo not drawn) as the molecule, how does the IC50 read?
**A.** 0.00887 µM

**Q.** Which IC50 does the source give for `C[C@H](N)C(=O)N1CCC(Nc2ccc3[nH]ncc3c2)CC1` here?
**A.** 5.74 µM

**Q.** For `NC(C(=O)N1CCN(c2ccc3[nH]ncc3c2)CC1)c1ccc(Cl)cc1` (stereo not drawn), which IC50 is on record?
**A.** 0.188 µM

**Q.** `NC(C(=O)N1CCN(c2ccc3[nH]ncc3c2)CC1)c1ccc(Br)cc1` (stereo not drawn) was tested. Which IC50 did it give?
**A.** 0.00897 µM

**Q.** `NC(C(=O)N1CCC(Nc2ccc3[nH]ncc3c2)CC1)c1cccc(Cl)c1` (stereo not drawn) was tested. Which IC50 did it give?
**A.** 0.148 µM

**Q.** `O=C([C@@H]1Cc2ccccc2CN1)N1CCN(c2ccc3[nH]ncc3c2)CC1` was tested. Which IC50 did it give?
**A.** 5.32 µM

**Q.** Which IC50 does the source give for `N[C@@H](Cc1ccccc1)C(=O)N1CCC(Nc2ccc3[nH]ncc3c2)CC1` here?
**A.** 0.468 µM

**Q.** With `NC(C(=O)N1CCN(c2ccc3[nH]ncc3c2)CC1)c1cccc(Cl)c1` (stereo not drawn) as the molecule, how does the IC50 read?
**A.** 0.756 µM

**Q.** `O=C([C@@H](O)c1ccccc1Cl)N1CCC(Nc2ccc3[nH]ncc3c2)CC1` was tested. Which IC50 did it give?
**A.** 1.7 µM

**Q.** `C[C@H](O)C(=O)N1CCC(Nc2ccc3[nH]ncc3c2)CC1` was tested. Which IC50 did it give?
**A.** > 10 µM (inactive)

**Q.** With `O=C(C(O)c1ccc(Br)cc1)N1CCN(c2ccc3[nH]ncc3c2)CC1` (stereo not drawn) as the molecule, how does the IC50 read?
**A.** 0.00786 µM

**Q.** `N[C@@H](C(=O)N1CCN(c2ccc3[nH]ncc3c2)CC1)c1ccccc1` was tested. Which IC50 did it give?
**A.** 1.4 µM

**Q.** How did the IC50 turn out when `O=C([C@H](O)c1cccc(Cl)c1)N1CCN(c2ccc3[nH]ncc3c2)CC1` was run?
**A.** 1.05 µM

**Q.** `O=C([C@H](O)c1ccccc1)N1CCN(c2ccc3[nH]ncc3c2)CC1` was tested. Which IC50 did it give?
**A.** 0.855 µM

**Q.** How did the IC50 turn out when `O=C([C@H](O)c1cccc(Cl)c1)N1CCC(Nc2ccc3[nH]ncc3c2)CC1` was run?
**A.** 0.35 µM

**Q.** How did the IC50 turn out when `C[C@@H](N)C(=O)N1CCN(c2ccc3[nH]ncc3c2)CC1` was run?
**A.** > 10.6 µM (inactive)

**Q.** With `N[C@H](C(=O)N1CCC(Nc2ccc3[nH]ncc3c2)CC1)c1ccccc1` as the molecule, how does the IC50 read?
**A.** 0.835 µM

**Q.** With `O=C([C@H](O)c1ccccc1)N1CCC(Nc2ccc3[nH]ncc3c2)CC1` as the molecule, how does the IC50 read?
**A.** 0.774 µM

**Q.** `O=C([C@H](O)c1ccccc1Cl)N1CCN(c2ccc3[nH]ncc3c2)CC1` was tested. Which IC50 did it give?
**A.** 1.2 µM

**Q.** Which IC50 does the source give for `CC(C)[C@@H](O)C(=O)N1CCN(c2ccc3[nH]ncc3c2)CC1` here?
**A.** 3.91 µM

**Q.** Which IC50 does the source give for `NC(C(=O)N1CCC(Nc2ccc3[nH]ncc3c2)CC1)c1ccc(Br)cc1` (stereo not drawn) here?
**A.** 0.00126 µM

**Q.** With `O=C(C(O)c1ccc(Cl)cc1)N1CCN(c2ccc3[nH]ncc3c2)CC1` (stereo not drawn) as the molecule, how does the IC50 read?
**A.** 0.186 µM
